The source made the active and inactive calls. The rule behind the calls is not given here.
Key:
ATR/ATRIP (Homo sapiens) = ATR/ATRIP (Homo sapiens) (UniProt Q13535+Q8WXE1); test: ATR/ATRIP(h) Millipore kinase panel; type: protein-complex assay; conditions: Compound concentration 1.0 uM
[1] = biological target: Serine/threonine-protein kinase WNK1 (Homo sapiens) (UniProt Q9H4A3); test: WNK1(h) Millipore kinase panel; conditions: Compound concentration 1.0 uM
[2] = biological target: Dual specificity protein kinase CLK2 (Homo sapiens) (UniProt P49760); test: CLK2(h) Millipore kinase panel; conditions: Compound concentration 1.0 uM
Sequence of Dual specificity protein kinase CLK2 (Homo sapiens) (P49760 whole entry, looked up): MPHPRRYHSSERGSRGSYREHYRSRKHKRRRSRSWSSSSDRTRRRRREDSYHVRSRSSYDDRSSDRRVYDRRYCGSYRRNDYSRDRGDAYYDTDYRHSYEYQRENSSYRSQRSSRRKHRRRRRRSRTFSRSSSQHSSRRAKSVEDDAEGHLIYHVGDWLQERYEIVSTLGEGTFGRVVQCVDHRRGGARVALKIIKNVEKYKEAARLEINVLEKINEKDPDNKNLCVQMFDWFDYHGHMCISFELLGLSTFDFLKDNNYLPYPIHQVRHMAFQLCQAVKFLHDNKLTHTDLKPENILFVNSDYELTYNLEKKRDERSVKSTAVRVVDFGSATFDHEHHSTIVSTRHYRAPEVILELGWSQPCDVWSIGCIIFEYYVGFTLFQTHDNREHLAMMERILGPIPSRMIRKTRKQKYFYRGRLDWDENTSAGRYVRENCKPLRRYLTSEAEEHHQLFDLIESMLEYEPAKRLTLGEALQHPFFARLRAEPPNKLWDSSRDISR

[3] = biological target: 5-hydroxytryptamine receptor 2A (Homo sapiens) (UniProt P28223); conditions: Compound concentration 10.0 uM
[4] = biological target: Receptor-interacting serine/threonine-protein kinase 1 (Homo sapiens) (UniProt Q13546); test: RIPK1(h) Millipore kinase panel; conditions: Compound concentration 1.0 uM
[5] = biological target: Serine/threonine-protein kinase tousled-like 2 (Homo sapiens) (UniProt Q86UE8); test: TLK2(h) Millipore kinase panel; conditions: Compound concentration 1.0 uM
[6] = biological target: BDNF/NT-3 growth factors receptor (Homo sapiens) (UniProt Q16620); test: TrkB(h) Millipore kinase panel; conditions: Compound concentration 1.0 uM
[7] = biological target: Equilibrative nucleoside transporter 1/2/3/4 (Homo sapiens) (UniProt Q99808+Q7RTT9+Q14542+Q9BZD2); conditions: Compound concentration 10.0 uM
[8] = biological target: Serine/threonine-protein kinase LATS2 (Homo sapiens) (UniProt Q9NRM7); test: LATS2(h) Millipore kinase panel; conditions: Compound concentration 1.0 uM
Homo sapiens = organism: Homo sapiens; conditions: Compound concentration 10.0 uM
[9] = biological target: Receptor tyrosine-protein kinase erbB-4 (Homo sapiens) (UniProt Q15303); test: ErbB4(h) Millipore kinase panel; conditions: Compound concentration 1.0 uM
Sequence of Receptor tyrosine-protein kinase erbB-4 (Homo sapiens) (Q15303 whole entry): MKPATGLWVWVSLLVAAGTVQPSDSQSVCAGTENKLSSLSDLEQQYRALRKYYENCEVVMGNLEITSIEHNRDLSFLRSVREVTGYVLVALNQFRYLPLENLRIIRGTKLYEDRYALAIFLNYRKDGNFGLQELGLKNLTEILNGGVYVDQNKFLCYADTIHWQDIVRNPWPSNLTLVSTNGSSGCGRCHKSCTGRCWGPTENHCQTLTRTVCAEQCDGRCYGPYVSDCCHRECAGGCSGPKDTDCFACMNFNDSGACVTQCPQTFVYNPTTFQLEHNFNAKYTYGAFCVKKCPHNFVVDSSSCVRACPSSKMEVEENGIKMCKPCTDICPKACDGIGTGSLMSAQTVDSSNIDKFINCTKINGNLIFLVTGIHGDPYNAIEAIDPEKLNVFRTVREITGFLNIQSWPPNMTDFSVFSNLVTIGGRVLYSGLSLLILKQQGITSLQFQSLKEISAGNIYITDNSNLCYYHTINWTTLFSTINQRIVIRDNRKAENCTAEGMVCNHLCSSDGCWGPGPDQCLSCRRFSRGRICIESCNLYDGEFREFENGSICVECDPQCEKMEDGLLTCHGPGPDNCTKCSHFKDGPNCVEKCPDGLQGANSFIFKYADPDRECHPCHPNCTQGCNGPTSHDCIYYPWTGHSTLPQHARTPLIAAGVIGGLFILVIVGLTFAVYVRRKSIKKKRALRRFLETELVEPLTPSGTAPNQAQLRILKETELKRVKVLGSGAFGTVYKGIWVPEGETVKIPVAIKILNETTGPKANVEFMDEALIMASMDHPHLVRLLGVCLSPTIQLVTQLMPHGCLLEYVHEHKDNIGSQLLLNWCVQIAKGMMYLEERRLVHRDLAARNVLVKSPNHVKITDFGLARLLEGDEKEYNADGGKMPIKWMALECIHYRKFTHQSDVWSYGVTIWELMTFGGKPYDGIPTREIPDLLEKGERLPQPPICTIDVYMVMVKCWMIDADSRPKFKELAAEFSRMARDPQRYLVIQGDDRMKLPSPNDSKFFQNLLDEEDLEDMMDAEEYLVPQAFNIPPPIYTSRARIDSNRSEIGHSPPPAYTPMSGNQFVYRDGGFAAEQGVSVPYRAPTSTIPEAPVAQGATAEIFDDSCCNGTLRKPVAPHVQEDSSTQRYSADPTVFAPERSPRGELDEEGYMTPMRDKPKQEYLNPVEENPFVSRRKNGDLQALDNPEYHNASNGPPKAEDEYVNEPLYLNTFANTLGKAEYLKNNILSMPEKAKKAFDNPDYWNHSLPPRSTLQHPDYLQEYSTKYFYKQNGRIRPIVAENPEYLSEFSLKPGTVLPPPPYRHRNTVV

[10] = biological target: Progesterone receptor (Homo sapiens) (UniProt P06401); conditions: Compound concentration 10.0 uM
Sequence of Progesterone receptor (Homo sapiens) (P06401 whole entry): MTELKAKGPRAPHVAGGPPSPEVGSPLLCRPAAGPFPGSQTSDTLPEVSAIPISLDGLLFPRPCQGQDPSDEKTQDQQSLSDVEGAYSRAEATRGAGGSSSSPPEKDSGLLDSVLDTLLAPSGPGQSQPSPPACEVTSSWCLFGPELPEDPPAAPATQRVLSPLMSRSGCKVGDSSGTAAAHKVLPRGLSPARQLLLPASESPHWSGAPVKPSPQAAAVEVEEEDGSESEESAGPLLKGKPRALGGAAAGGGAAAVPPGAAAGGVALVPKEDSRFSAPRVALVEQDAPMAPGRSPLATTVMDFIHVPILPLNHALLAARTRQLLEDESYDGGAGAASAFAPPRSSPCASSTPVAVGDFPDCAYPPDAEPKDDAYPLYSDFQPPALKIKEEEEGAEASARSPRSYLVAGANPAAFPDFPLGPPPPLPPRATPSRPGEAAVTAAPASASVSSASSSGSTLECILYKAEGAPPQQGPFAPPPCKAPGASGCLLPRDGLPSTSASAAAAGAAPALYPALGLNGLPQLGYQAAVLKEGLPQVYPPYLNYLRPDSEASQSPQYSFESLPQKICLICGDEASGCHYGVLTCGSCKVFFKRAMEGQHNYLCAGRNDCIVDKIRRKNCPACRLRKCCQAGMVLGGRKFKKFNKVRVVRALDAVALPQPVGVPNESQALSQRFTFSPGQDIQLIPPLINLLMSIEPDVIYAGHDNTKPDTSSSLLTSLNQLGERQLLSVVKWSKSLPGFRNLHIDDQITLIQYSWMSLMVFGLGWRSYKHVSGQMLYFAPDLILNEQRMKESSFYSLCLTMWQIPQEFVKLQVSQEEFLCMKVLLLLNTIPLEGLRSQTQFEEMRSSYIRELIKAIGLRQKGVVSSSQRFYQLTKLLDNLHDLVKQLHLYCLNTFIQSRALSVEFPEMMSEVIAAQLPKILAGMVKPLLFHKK

[11] = biological target: Dual specificity tyrosine-phosphorylation-regulated kinase 1B (Homo sapiens) (UniProt Q9Y463); test: DYRK1B(h) Millipore kinase panel; conditions: Compound concentration 1.0 uM
[12] = biological target: Monoamine oxidase B (MAO-B) (Homo sapiens, UniProt P27338); test: Inhibition of Monoamine Oxidase MAO-B at compound concentration of 10.0 uM in the Eurofins-Panlabs enzyme assay (Eurofins_assay_140120); set-up: substrate with concentration 50 uM Kynuramine, incubation time 60 min, incubation temperature 37 C; conditions: recombinant human MAO-B expressed in insect Hi5 cells, probe Kynuramine (50 uM), compound concentration 10 uM
Sequence of Monoamine oxidase B (MAO-B) (P27338 whole entry, the tested form may be a part): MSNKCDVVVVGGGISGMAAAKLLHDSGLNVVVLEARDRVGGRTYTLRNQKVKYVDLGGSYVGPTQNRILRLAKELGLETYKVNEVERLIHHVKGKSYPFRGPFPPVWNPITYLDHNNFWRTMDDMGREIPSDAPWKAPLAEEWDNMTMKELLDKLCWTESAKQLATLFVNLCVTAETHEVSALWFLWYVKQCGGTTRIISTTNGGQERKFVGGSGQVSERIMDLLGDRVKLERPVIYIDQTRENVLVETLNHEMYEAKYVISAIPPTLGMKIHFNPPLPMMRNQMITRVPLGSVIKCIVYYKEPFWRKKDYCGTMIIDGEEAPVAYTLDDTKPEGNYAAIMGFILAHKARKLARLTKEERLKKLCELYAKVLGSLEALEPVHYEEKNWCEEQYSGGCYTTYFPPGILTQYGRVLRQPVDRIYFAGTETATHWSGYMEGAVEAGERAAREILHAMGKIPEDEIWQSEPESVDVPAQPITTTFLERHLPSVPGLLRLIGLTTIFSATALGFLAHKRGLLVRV

[13] = biological target: Phosphatidylinositol 3-kinase C2 domain-containing subunit gamma (Homo sapiens) (UniProt O75747); test: PI3KC2g(h) Millipore kinase panel; conditions: Compound concentration 1.0 uM
[14] = biological target: RAC-alpha serine/threonine-protein kinase (Homo sapiens) (UniProt P31749); test: PKBalpha(h) Millipore kinase panel; conditions: Compound concentration 1.0 uM
Sequence of RAC-alpha serine/threonine-protein kinase (Homo sapiens) (P31749 whole entry): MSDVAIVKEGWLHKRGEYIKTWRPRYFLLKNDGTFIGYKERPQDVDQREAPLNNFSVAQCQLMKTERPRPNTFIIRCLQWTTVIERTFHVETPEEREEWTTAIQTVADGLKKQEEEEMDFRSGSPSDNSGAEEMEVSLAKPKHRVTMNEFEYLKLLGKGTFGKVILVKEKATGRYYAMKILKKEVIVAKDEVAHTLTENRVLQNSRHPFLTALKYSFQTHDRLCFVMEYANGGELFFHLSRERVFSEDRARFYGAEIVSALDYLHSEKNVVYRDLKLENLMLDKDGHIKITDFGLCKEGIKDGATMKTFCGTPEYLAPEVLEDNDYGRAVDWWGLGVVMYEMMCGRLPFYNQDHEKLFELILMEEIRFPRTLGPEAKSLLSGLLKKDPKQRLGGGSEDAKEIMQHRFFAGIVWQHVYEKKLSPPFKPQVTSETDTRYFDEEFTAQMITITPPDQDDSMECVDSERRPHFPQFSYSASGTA

[15] = biological target: T1, Muscarinic acetylcholine receptor M1 (Homo sapiens) (UniProt P11229); conditions: Compound concentration 10.0 uM
T1 sequence (whole entry): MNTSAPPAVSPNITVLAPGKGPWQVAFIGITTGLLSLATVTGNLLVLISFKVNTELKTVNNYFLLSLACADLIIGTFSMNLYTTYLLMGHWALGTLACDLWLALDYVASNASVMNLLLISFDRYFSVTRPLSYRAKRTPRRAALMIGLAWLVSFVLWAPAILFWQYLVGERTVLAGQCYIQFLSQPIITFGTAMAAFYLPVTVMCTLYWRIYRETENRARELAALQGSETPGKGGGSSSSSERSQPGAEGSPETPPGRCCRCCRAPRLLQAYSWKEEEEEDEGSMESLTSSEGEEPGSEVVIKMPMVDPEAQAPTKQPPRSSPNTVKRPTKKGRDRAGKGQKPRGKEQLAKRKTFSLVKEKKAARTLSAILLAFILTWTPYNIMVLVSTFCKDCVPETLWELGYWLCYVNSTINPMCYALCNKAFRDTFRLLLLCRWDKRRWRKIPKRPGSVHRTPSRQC

[16] = biological target: Monoamine oxidase A (MAO-A) (Homo sapiens, UniProt P21397); test: Inhibition of Monoamine Oxidase MAO-A at compound concentration of 10.0 uM in the Eurofins-Panlabs enzyme assay (Eurofins_assay_140010); set-up: substrate with concentration 50 uM Kynuramine, incubation time 60 min, incubation temperature 37 C; conditions: recombinant human MAO-A expressed in insect Hi5 cells, probe Kynuramine (50 uM), compound concentration 10 uM
[17] = biological target: Serine/threonine-protein kinase Nek1 (Homo sapiens) (UniProt Q96PY6); test: NEK1(h) Millipore kinase panel; conditions: Compound concentration 1.0 uM
[18] = biological target: Acetylcholinesterase (Homo sapiens) (UniProt P22303); conditions: Compound concentration 10.0 uM
[19] = biological target: Protein-tyrosine kinase 6 (Homo sapiens) (UniProt Q13882); test: BRK(h) Millipore kinase panel; conditions: Compound concentration 1.0 uM
[20] = biological target: Mitogen-activated protein kinase kinase kinase 20 (Homo sapiens) (UniProt Q9NYL2); test: ZAK(h) Millipore kinase panel; conditions: Compound concentration 1.0 uM
[21] = biological target: PAS domain-containing serine/threonine-protein kinase (Homo sapiens) (UniProt Q96RG2); test: PASK(h) Millipore kinase panel; conditions: Compound concentration 1.0 uM
[22] = biological target: Serine/threonine-protein kinase WNK4 (Homo sapiens) (UniProt Q96J92); test: WNK4(h) Millipore kinase panel; conditions: Compound concentration 1.0 uM
[23] = biological target: Insulin receptor (Homo sapiens) (UniProt P06213); conditions: Rattus norvegicus; Compound concentration 10.0 uM
[24] = biological target: Muscarinic acetylcholine receptor M3 (Homo sapiens) (UniProt P20309); conditions: Compound concentration 10.0 uM
Sequence of Muscarinic acetylcholine receptor M3 (Homo sapiens) (P20309 whole entry, looked up): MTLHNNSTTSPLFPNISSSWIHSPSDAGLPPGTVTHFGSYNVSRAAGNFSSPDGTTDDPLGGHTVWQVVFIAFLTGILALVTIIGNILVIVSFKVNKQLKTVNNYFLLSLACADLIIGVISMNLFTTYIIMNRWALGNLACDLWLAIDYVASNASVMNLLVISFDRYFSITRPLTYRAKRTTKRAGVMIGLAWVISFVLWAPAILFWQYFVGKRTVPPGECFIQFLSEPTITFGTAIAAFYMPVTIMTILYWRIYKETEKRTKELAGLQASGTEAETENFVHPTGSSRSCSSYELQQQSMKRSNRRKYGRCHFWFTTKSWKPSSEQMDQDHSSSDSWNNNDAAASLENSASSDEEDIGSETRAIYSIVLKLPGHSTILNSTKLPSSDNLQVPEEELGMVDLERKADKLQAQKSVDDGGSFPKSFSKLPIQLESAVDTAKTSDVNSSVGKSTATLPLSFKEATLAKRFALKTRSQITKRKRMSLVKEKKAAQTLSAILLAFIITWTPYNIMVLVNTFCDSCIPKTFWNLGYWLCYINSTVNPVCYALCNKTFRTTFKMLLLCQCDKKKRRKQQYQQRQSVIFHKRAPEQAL

[25] = biological target: Cyclin-dependent kinase-like 1 (Homo sapiens) (UniProt Q00532); test: CDKL1(h) Millipore kinase panel; conditions: Compound concentration 1.0 uM
[26] = biological target: Serine/threonine-protein kinase DCLK3 (Homo sapiens) (UniProt Q9C098); test: DCAMKL3(h) Millipore kinase panel; conditions: Compound concentration 1.0 uM
[27] = biological target: Phosphatidylinositol 4-phosphate 3-kinase C2 domain-containing subunit alpha (Homo sapiens) (UniProt O00443); test: PI3KC2a(h) Millipore kinase panel; conditions: Compound concentration 1.0 uM
[28] = biological target: Tyrosine-protein kinase ABL2 (Homo sapiens) (UniProt P42684); test: Arg(h) Millipore kinase panel; conditions: Compound concentration 1.0 uM
[29] = biological target: Vasopressin V1a receptor (Homo sapiens) (UniProt P37288); conditions: Compound concentration 10.0 uM
[30] = biological target: Serine/threonine-protein kinase Nek7 (Homo sapiens) (UniProt Q8TDX7); test: NEK7(h) Millipore kinase panel; conditions: Compound concentration 1.0 uM
Sequence of Serine/threonine-protein kinase Nek7 (Homo sapiens) (Q8TDX7 whole entry, looked up): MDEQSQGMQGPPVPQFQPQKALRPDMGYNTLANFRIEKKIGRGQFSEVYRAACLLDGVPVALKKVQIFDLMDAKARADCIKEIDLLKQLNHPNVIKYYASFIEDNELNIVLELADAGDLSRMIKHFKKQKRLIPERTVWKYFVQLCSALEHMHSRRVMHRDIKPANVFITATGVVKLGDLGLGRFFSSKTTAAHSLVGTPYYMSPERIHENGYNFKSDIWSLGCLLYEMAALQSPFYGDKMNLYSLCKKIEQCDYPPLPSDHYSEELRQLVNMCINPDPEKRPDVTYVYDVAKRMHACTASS

[31] = biological target: Aurora kinase A (Homo sapiens) (UniProt O14965); test: Aurora_A(h) Millipore kinase panel; conditions: Compound concentration 1.0 uM
[32] = biological target: Casein kinase II subunit alpha (Homo sapiens) (UniProt P68400); test: CK2alpha1(h) Millipore kinase panel; conditions: Compound concentration 1.0 uM
[33] = biological target: Activin receptor type-1B (Homo sapiens) (UniProt P36896); test: Alk4(h) Millipore kinase panel; conditions: Compound concentration 1.0 uM
[34] = biological target: Cannabinoid receptor 2 (Homo sapiens) (UniProt P34972); conditions: Compound concentration 10.0 uM
[35] = biological target: RAC-beta serine/threonine-protein kinase (Homo sapiens) (UniProt P31751); test: PKBbeta(h) Millipore kinase panel; conditions: Compound concentration 1.0 uM
[36] = biological target: Inhibitor of nuclear factor kappa-B kinase subunit alpha (Homo sapiens) (UniProt O15111); test: IKKalpha(h) Millipore kinase panel; conditions: Compound concentration 1.0 uM
[37] = biological target: Kappa-type opioid receptor (Homo sapiens) (UniProt P41145); conditions: Compound concentration 10.0 uM
Sequence of Kappa-type opioid receptor (Homo sapiens) (P41145 whole entry): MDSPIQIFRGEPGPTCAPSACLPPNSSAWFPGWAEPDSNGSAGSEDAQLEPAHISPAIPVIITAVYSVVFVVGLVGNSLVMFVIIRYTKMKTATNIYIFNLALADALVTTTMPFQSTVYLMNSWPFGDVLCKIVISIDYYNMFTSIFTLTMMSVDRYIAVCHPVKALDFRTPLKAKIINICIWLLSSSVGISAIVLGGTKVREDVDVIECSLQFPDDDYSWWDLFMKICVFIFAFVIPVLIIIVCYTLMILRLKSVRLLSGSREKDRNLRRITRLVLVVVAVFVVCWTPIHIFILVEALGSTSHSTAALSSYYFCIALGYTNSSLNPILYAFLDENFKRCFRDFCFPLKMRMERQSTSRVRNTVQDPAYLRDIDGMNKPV

CC[C@@H](Nc1c(C#N)c(-c2ccc(-c3cccc(C)c3F)cc2)nc2cnccc12)C(=O)O [BAY-091]
inhibition (ATR/ATRIP (Homo sapiens)): 16.2%
inhibition [1]: 14.7%
inhibition [2]: 0.07%
inhibition [3]: -8.43%
inhibition [4]: 21.2%
inhibition [5]: 8.27%
inhibition [6]: 2.08%
inhibition [7]: 42%
inhibition [8]: 1.83%
inhibition (Homo sapiens): -8%
inhibition [9]: 3.85%
inhibition [10]: 29%
inhibition [11]: 12.1%
inhibition at 60 min, 10 µM [12]: 81% (active)
inhibition [13]: 25.4%
inhibition [14]: -1.04%
inhibition [15]: -5.6%
inhibition at 60 min, 10 µM [16]: 7% (not active)
inhibition [17]: 24.4%
inhibition [18]: 27%
inhibition [19]: 8.07%
inhibition [20]: -4.94%
inhibition [21]: 11.1%
inhibition [22]: 11.1%
inhibition [23]: -1%
inhibition [24]: -8.52%
inhibition [25]: 4.02%
inhibition [26]: 5.32%
inhibition [27]: 4.18%
inhibition [28]: 7.75%
inhibition [29]: -3%
inhibition [30]: 5.49%
inhibition [31]: 13.8%
inhibition [32]: 3.34%
inhibition [33]: -3.68%
inhibition [34]: 1%
inhibition [35]: 3.52%
inhibition [36]: 3.94%
inhibition [37]: 0.48%
